Experimental data reported in ChEMBL document CHEMBL3508140 (2016).
Blank lines part the entries; values can stand above or below the molecule they belong to.

Legend:
[1] = organism: Homo sapiens; test: Binding of 14C-epirubicin at 100 ng.ml-1 concentration to plasma protein of man; format: cell-free; set-up: gender
[2] = organism: Homo sapiens; test: Binding of 14C-epirubicin at 500 ng.ml-1 concentration to plasma protein of man; format: cell-free; set-up: gender
[3] = organism: Homo sapiens; test: Binding of 14C-epirubicin at 1000 ng.ml-1 concentration to plasma protein of man; format: cell-free; set-up: gender
[4] = organism: Mus musculus; test: Binding of 14C-epirubicin at 20 ng.ml-1 concentration to plasma protein of mouse; format: cell-free; details: CD-1
[5] = organism: Mus musculus; test: Binding of 14C-epirubicin at 100 ng.ml-1 concentration to plasma protein of mouse; format: cell-free; details: CD-1
[6] = organism: Mus musculus; test: Binding of 14C-epirubicin at 500 ng.ml-1 concentration to plasma protein of mouse; format: cell-free; details: CD-1
[7] = organism: Mus musculus; test: Binding of 14C-epirubicin at 1000 ng.ml-1 concentration to plasma protein of mouse; format: cell-free; details: CD-1
[8] = organism: Rattus norvegicus; test: Binding of 14C-epirubicin at 20 ng.ml-1 concentration to plasma protein of rat; format: cell-free; details: SD
[9] = organism: Rattus norvegicus; test: Binding of 14C-epirubicin at 100 ng.ml-1 concentration to plasma protein of rat; format: cell-free; details: SD
[10] = organism: Rattus norvegicus; test: Binding of 14C-epirubicin at 500 ng.ml-1 concentration to plasma protein of rat; format: cell-free; details: SD
[11] = organism: Rattus norvegicus; test: Binding of 14C-epirubicin at 1000 ng.ml-1 concentration to plasma protein of rat; format: cell-free; details: SD
[12] = organism: Oryctolagus cuniculus; test: Binding of 14C-epirubicin at 20 ng.ml-1 concentration to plasma protein of rabbit; format: cell-free; details: New Zealand White
[13] = organism: Oryctolagus cuniculus; test: Binding of 14C-epirubicin at 100 ng.ml-1 concentration to plasma protein of rabbit; format: cell-free; details: New Zealand White
[14] = organism: Oryctolagus cuniculus; test: Binding of 14C-epirubicin at 500 ng.ml-1 concentration to plasma protein of rabbit; format: cell-free; details: New Zealand White
[15] = organism: Oryctolagus cuniculus; test: Binding of 14C-epirubicin at 1000 ng.ml-1 concentration to plasma protein of rabbit; format: cell-free; details: New Zealand White
[16] = organism: Canis lupus familiaris; test: Binding of 14C-epirubicin at 20 ng.ml-1 concentration to plasma protein of dog; format: cell-free; details: Beagle
[17] = organism: Canis lupus familiaris; test: Binding of 14C-epirubicin at 100 ng.ml-1 concentration to plasma protein of dog; format: cell-free; details: Beagle
[18] = organism: Canis lupus familiaris; test: Binding of 14C-epirubicin at 500 ng.ml-1 concentration to plasma protein of dog; format: cell-free; details: Beagle
[19] = organism: Canis lupus familiaris; test: Binding of 14C-epirubicin at 1000 ng.ml-1 concentration to plasma protein of dog; format: cell-free; details: Beagle
[20] = organism: Homo sapiens; test: Binding of epirubicin at 20-1000 ng.ml-1 concentration to plasma protein of human; format: cell-free
[21] = organism: Homo sapiens; test: Binding of epirubicin to plasma protein of human; format: cell-free
[22] = organism: Rattus norvegicus; test: Binding of 14C-epirubicin at 0.164 ug-ml-1 concentration to plasma protein of rat; format: organism-based; set-up: conc 0.164 ug.ml-1, dosed compound id 2.46808e+06, dosed compound name, sampling time 30 min; details: SD, at 0.164 µg/mL
[23] = organism: Rattus norvegicus; test: Binding of 14C-epirubicin at 0.077 ug-ml-1 concentration to plasma protein of rat; format: organism-based; set-up: conc 0.077 ug.ml-1, dosed compound id 2.46808e+06, dosed compound name, sampling time 6 h; details: SD, at 0.077 µg/mL
[24] = organism: Rattus norvegicus; test: Binding of 14C-epirubicin at 0.048 ug-ml-1 concentration to plasma protein of rat; format: organism-based; set-up: conc 0.048 ug.ml-1, dosed compound id 2.46808e+06, dosed compound name, sampling time 24 h; details: SD, at 0.048 µg/mL
[25] = organism: Rattus norvegicus; test: Binding of 14C-epirubicin at 0.056 ug-ml-1 concentration to plasma protein of rat; format: cell-free; set-up: conc 0.056 ug.ml-1; details: SD, at 0.056 µg/mL
[26] = organism: Rattus norvegicus; test: Binding of 14C-epirubicin at 0.223 ug-ml-1 concentration to plasma protein of rat; format: cell-free; set-up: conc 0.223 ug.ml-1; details: SD, at 0.223 µg/mL
[27] = organism: Rattus norvegicus; test: Binding of 14C-epirubicin at 1.081 ug-ml-1 concentration to plasma protein of rat; format: cell-free; set-up: conc 1.081 ug.ml-1; details: SD, at 1.081 µg/mL
[28] = Terminal half-life of carminomycin following intravenous carminomycin at 1.0 mg.Kg-1 dose in dog; format: ADME, organism-based, Canis lupus familiaris; set-up: dose 1 mg.Kg-1, dosed compound id 2.46809e+06, dosed compound name Carminomycin, route intravenous; details: Beagle, plasma
[29] = Volume of distribution of carminomycin following intravenous carminomycin at 1.0 mg.Kg-1 dose in dog; format: ADME, organism-based, Canis lupus familiaris; set-up: dose 1 mg.Kg-1, dosed compound id 2.46809e+06, dosed compound name Carminomycin, route intravenous; details: Beagle, plasma
[30] = Plasma clearance of carminomycin following intravenous carminomycin at 1.0 mg.Kg-1 dose in dog; format: ADME, organism-based, Canis lupus familiaris; set-up: dose 1 mg.Kg-1, dosed compound id 2.46809e+06, dosed compound name Carminomycin, route intravenous; details: Beagle, read-out: Clp
[31] = Terminal half-life of daunorubicin following intravenous daunorubicin at 1.2 mg.Kg-1 dose in dog; format: ADME, organism-based, Canis lupus familiaris; set-up: dose 1.2 mg.Kg-1, dosed compound id 2.46809e+06, dosed compound name Daunorubicin, route intravenous; details: Beagle, plasma
[32] = Volume of distribution of daunorubicin following intravenous daunorubicin at 1.2 mg.Kg-1 dose in dog; format: ADME, organism-based, Canis lupus familiaris; set-up: dose 1.2 mg.Kg-1, dosed compound id 2.46809e+06, dosed compound name Daunorubicin, route intravenous; details: Beagle, plasma
[33] = Plasma clearance of daunorubicin following intravenous daunorubicin at 1.2 mg.Kg-1 dose in dog; format: ADME, organism-based, Canis lupus familiaris; set-up: dose 1.2 mg.Kg-1, dosed compound id 2.46809e+06, dosed compound name Daunorubicin, route intravenous; details: Beagle, read-out: Clp
[34] = Mean terminal half-life for ADR-529 following intravenous epirubicin at 0.5 mg.Kg-1 dose administered approximately 25 minute prior to epirubicin once weekly for four weeks in dog; format: ADME, organism-based, Canis lupus familiaris; details: Beagle, plasma
[35] = Mean terminal half-life for ADR-529 following intravenous epirubicin at 1 mg.Kg-1 dose administered approximately 25 minute prior to epirubicin once weekly for four weeks in dog; format: ADME, organism-based, Canis lupus familiaris; details: Beagle, plasma
[36] = AUC (2-8 h) of ADR-529 following intravenous ADR-529 at 10 mg.Kg-1 dose administered approximately 25 minute prior to epirubicin once weekly for four weeks in dog; format: ADME, organism-based, Canis lupus familiaris; set-up: dose 10 mgKg-1, dosed compound id 2.4681e+06, dosed compound name Dexrazoxane, dose level Intermediate, route intravenous, sampling time 8 h, study doses 5/10/20 mgKg-1; details: Beagle, plasma
[37] = AUC (2-8 h) of ADR-529 following intravenous ADR-529 at 20 mg.Kg-1 dose administered approximately 25 minute prior to epirubicin once weekly for four weeks in dog; format: ADME, organism-based, Canis lupus familiaris; set-up: dose 20 mgKg-1, dosed compound id 2.4681e+06, dosed compound name Dexrazoxane, dose level High, route intravenous, sampling time 8 h, study doses 5/10/20 mgKg-1; details: Beagle, plasma

Compound: COc1cccc2c1C(=O)c1c(O)c3c(c(O)c1C2=O)C[C@@](O)(C(=O)CO)C[C@@H]3O[C@H]1C[C@H](N)[C@@H](O)[C@H](C)O1
- PPB [1]: 78.1%
- PPB [2]: 77.3%
- PPB [3]: 76.8%
- PPB [4]: 76.5%
- PPB [5]: 79.9%
- PPB [6]: 80%
- PPB [7]: 80.3%
- PPB [8]: 79.1%
- PPB [9]: 82.8%
- PPB [10]: 81.3%
- PPB [11]: 78.7%
- PPB [12]: 78.5%
- PPB [13]: 70.2%
- PPB [14]: 78.4%
- PPB [15]: 77.1%
- PPB [16]: 80.3%
- PPB [17]: 81.2%
- PPB [18]: 80.7%
- PPB [19]: 80.9%
- PPB [20]: 77%
- PPB [21]: 75%
- PPB [22]: 80.7%
- PPB [23]: 85.6%
- PPB [24]: 88.2%
- PPB [25]: 81.7%
- PPB [26]: 81%
- PPB [27]: 82.2%

Compound: CC(=O)[C@]1(O)Cc2c(O)c3c(c(O)c2[C@@H](O[C@H]2C[C@H](N)[C@H](O)[C@H](C)O2)C1)C(=O)c1c(O)cccc1C3=O [CARUBICIN]
- half-life [28]: 20.3 min
- Vd [29]: 98.5 L/kg
- clearance [30]: 1360 mL/min

- half-life [31]: 5.3 min
- Vd [32]: 51 L/kg
- clearance [33]: 2030 mL/min
Compound: COc1cccc2c1C(=O)c1c(O)c3c(c(O)c1C2=O)C[C@@](O)(C(C)=O)C[C@@H]3O[C@H]1C[C@H](N)[C@H](O)[C@H](C)O1 [DAUNORUBICIN]

- half-life [34]: 108 min
- half-life [35]: 72 min
- AUC [36]: 2710 ng·h/mL
- AUC [37]: 5570 ng·h/mL
Compound: C[C@@H](CN1CC(=O)NC(=O)C1)N1CC(=O)NC(=O)C1 [DEXRAZOXANE]
